# Results as given in patent publication US9108903B2, “Amides as modulators of sodium channels” (VERTEX PHARMACEUTICALS INCORPORATED, priority 2013, dated 2015).
# Molecular target: human Nav1.8 (Homo sapiens (Human), UniProt Q9Y5Y9)
# Test: E-VIPR optical membrane potential assay with electrical stimulation
# Format: cell-based
# Conditions: HEK cells expressing human Nav1.8
# Source text: Assays for Detecting and Measuring NaV Inhibition Properties of Compounds E-VIPR Optical Membrane Potential Assay Method with Electrical Stimulation
# Sodium channels are voltage-dependent proteins that can be activated by inducing membrane voltage changes by applying electric fields. The electrical stimulation instrument and methods of use are described in Ion Channel Assay Methods PCT/US01/21652, herein incorporated by reference and are referred to as E-VIPR. The instrument comprises a microtiter plate handler, an optical system for exciting the coumarin dye while simultaneously recording the coumarin and oxonol emissions, a waveform generator, a current- or voltage-controlled amplifier, and a device for inserting electrodes in well. Under integrated computer control, this instrument passes user-programmed electrical stimulus protocols to cells within the wells of the microtiter plate.
# 24 hours before the assay on E-VIPR, HEK cells expressing human Nav1.8 were seeded in 384-well poly-lysine coated plates at 15,000-20,000 cells per well. HEK cells were grown in media (exact composition is specific to each cell type and NaV subtype) supplemented with 10% FBS (Fetal Bovine Serum, qualified; GibcoBRL #16140-071) and 1% Pen-Strep (Penicillin-Streptomycin; GibcoBRL #15140-122). Cells were grown in vented cap flasks, in 90% humidity and 5% CO2.
# 100 mg/mL Pluronic F-127 (Sigma #P2443), in dry DMSO
# Compound Plates: 384-well round bottom plate, e.g. Corning 384-well Polypropylene Round Bottom #3656
# Cell Plates: 384-well tissue culture treated plate, e.g. Greiner #781091-1B
# Bath1 buffer: Glucose 10 mM (1.8 g/L), Magnesium Chloride (Anhydrous), 1 mM (0.095 g/L), Calcium Chloride, 2 mM (0.222 g/L), HEPES 10 mM (2.38 g/L), Potassium Chloride, 4.5 mM (0.335 g/L), Sodium Chloride 160 mM (9.35 g/L).
# Hexyl Dye Solution: Bath1 Buffer+0.5% β-cyclodextrin (make this prior to use, Sigma #C4767), 8 μM CC2-DMPE+2.5 μM DiSBAC6(3). To make the solution added volume of 10% Pluronic F127 stock equal to volumes of CC2-DMPE+DiSBAC6(3). The order of preparation was first mix Pluronic and CC2-DMPE, then added DiSBAC6(3) while vortexing, then added Bath1+β-Cyclodextrin.
# 1) Pre-spotted compounds (in neat DMSO) into compound plates. Vehicle control (neat DMSO), the positive control (20 mM DMSO stock tetracaine, 125 μM final in assay) and test compounds were added to each well at 160× desired final concentration in neat DMSO. Final compound plate volume was 80 μL (80-fold intermediate dilution from 1 μL DMSO spot; 160-fold final dilution after transfer to cell plate). Final DMSO concentration for all wells in assay was 0.625%.
# 2) Prepared Hexyl Dye Solution.
# 3) Prepared cell plates. On the day of the assay, medium was aspirated and cells were washed three times with 100 μL of Bath1 Solution, maintaining 25 μL residual volume in each well.
# 4) Dispensed 25 μL per well of Hexyl Dye Solution into cell plates. Incubated for 20-35 minutes at room temp or ambient conditions.
# 5) Dispensed 80 μL per well of Bath1 into compound plates. Acid Yellow-17 (1 mM) was added and Potassium Chloride was altered from 4.5 to 20 mM depending on the NaV subtype and assay sensitivity.
# 6) Washed cell plates three times with 100 μL per well of Bath1, leaving 25 μL of residual volume. Then transfered 25 uL per well from Compound Plates to Cell Plates. Incubated for 20-35 minutes at room temp/ambient condition.
# 7) Read Plate on E-VIPR. Used the current-controlled amplifier to deliver stimulation wave pulses for 10 seconds and a scan rate of 200 Hz. A pre-stimulus recording was performed for 0.5 seconds to obtain the un-stimulated intensities baseline. The stimulatory waveform was followed by 0.5 seconds of post-stimulation recording to examine the relaxation to the resting state.
# Data was analyzed and reported as normalized ratios of emission intensities measured in the 460 nm and 580 nm channels. The response as a function of time was reported as the ratios obtained using the following formula: […]
# human Nav1.8, sequence (Q9Y5Y9 whole entry): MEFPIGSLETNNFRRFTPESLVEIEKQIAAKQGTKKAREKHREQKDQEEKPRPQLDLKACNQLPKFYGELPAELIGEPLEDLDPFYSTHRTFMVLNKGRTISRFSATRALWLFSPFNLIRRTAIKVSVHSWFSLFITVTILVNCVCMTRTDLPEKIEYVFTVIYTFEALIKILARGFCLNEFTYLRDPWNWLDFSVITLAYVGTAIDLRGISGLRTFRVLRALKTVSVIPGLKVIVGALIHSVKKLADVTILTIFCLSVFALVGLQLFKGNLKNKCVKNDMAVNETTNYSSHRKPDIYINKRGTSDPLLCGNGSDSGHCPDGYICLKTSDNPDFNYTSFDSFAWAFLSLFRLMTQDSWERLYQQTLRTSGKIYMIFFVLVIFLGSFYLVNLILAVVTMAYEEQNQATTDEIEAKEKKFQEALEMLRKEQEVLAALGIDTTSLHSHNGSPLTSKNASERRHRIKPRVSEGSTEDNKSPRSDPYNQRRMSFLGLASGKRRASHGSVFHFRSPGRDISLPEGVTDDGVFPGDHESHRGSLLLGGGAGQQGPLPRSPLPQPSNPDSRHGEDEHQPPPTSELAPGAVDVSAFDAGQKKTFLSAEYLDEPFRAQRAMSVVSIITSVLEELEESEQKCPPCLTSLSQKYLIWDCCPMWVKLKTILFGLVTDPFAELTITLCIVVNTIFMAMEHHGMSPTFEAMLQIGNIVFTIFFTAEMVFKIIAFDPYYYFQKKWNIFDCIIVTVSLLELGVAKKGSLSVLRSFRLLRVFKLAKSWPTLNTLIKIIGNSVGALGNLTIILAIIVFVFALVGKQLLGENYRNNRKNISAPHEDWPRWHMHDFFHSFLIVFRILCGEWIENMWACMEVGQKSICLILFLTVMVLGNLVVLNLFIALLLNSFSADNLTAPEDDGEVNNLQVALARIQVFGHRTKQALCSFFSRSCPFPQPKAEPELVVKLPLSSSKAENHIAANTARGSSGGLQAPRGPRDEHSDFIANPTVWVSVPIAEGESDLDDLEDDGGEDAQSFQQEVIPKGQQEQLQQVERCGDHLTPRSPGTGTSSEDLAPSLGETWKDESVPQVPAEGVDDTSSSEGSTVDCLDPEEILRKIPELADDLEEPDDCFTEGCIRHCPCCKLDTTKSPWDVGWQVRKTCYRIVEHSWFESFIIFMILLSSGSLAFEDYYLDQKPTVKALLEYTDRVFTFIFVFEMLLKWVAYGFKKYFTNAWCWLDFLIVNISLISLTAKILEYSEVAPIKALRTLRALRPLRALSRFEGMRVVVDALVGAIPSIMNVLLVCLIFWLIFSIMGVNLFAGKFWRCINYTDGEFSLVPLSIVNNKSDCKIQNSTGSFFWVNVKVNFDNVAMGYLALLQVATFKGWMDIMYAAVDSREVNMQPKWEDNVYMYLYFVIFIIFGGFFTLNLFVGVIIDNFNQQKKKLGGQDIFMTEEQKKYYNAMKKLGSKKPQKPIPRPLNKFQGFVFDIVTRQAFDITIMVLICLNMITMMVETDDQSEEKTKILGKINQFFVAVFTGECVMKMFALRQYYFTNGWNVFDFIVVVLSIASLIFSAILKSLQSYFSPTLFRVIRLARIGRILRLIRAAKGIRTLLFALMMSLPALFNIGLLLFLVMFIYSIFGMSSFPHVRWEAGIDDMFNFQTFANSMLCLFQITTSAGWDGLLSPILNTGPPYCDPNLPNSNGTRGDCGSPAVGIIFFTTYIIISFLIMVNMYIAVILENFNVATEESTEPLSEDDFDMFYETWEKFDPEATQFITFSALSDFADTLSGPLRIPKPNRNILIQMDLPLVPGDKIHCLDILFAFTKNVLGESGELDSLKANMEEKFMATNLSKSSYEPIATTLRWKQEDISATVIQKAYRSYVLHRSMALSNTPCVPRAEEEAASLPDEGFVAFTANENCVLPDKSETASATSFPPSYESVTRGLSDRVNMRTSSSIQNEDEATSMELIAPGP
row,Molecule,IC50 [nM]
1,"O=C(O)c1ccc(NC(=O)c2cc(Cl)c(Cl)cc2Oc2ccc(F)cc2F)cc1 [Compound 24, 4-(4,5-dichloro-2-(2,4-difluorophenoxy)benzamido)benzoic acid]",53
2,"COc1ccc(Oc2cc(Cl)c(Cl)cc2C(=O)Nc2ccc(C(=O)O)nc2)cc1F [Compound 40, 5-(4,5-dichloro-2-(3-fluoro-4-methoxyphenoxy)benzamido)picolinic acid]",34
3,"O=C(O)c1ccc(NC(=O)c2c(Oc3ccc(F)cc3F)cc(C(F)(F)F)cc2C(F)(F)F)cc1 [Compound 8, 4-(2-(2,4-difluorophenoxy)-4,6-bis(trifluoromethyl)benzamido)benzoic acid]",405
4,"Cc1cc(F)ccc1Oc1cc(Cl)c(Cl)cc1C(=O)Nc1ccc(C(=O)O)nc1 [Compound 32, 5-(4,5-dichloro-2-(4-fluoro-2-methylphenoxy)benzamido)picolinic acid]",11
5,"CC(C)(C)c1ccc(C(=O)Nc2ccc(C(=O)O)nc2)c(Oc2ccc(F)cc2)c1 [Compound 54, 5-(4-(tert-butyl)-2-(4-fluorophenoxy)benzamido)picolinic acid]",180
6,"4-(4,5-dichloro-2-(4-fluoro-2-methoxyphenoxy)benzamido)picolinic acid [Compound 76]",12

# Continued by falling IC50, values first:
row,IC50 [nM],Molecule
1,430,"O=C(O)c1ccc(NC(=O)c2cc(C(F)(F)F)ccc2Oc2ccccc2Cl)cn1 [Compound 63, 5-(2-(2-chlorophenoxy)-5-(trifluoromethyl)benzamido)picolinic acid]"
2,370,"COc1ccccc1Oc1ccc(C(F)(F)F)cc1C(=O)Nc1ccc(C(=O)O)nc1 [Compound 62, 5-(2-(2-methoxyphenoxy)-5-(trifluoromethyl)benzamido)picolinic acid]"
3,35,"COc1cc(F)ccc1Oc1cc(C(F)(F)C(F)(F)F)ccc1C(=O)Nc1ccc(C(=O)O)nc1 [Compound 72, 5-(2-(4-fluoro-2-methoxyphenoxy)-4-(perfluoroethyl)benzamido)picolinic acid]"
4,24,"O=C(O)c1ccc(NC(=O)c2cc(Cl)c(Cl)cc2Oc2ccc(OC(F)(F)F)cc2)cc1 [Compound 26, 4-(4,5-dichloro-2-(4-(trifluoromethoxy)phenoxy)benzamido)benzoic acid]"
5,11,"COc1cc(F)ccc1Oc1cc(Cl)c(Cl)cc1C(=O)Nc1ccc(C(=O)O)cc1 [Compound 12, 4-(4,5-dichloro-2-(4-fluoro-2-methoxyphenoxy)benzamido)benzoic acid]"
